Laboratory results reported in US12110299B2, “Thiazole derivatives and pharmaceutically acceptable salts thereof” (YUNGJIN PHARM. CO., LTD., priority 2018, dated 2024).

Columns and labels:
MDA-MB-468 cells [1] = experiment: Anti-proliferative effect on MDA-MB-468 cells, inhibition rate at 100 nM (tetrazolium salt method); format: cell-based; conditions: Homo sapiens, 72 hours
Description: Representative compounds of the present invention were tested at different concentrations (from 1000 nM to 25 nM) to assess their ability to inhibit the proliferation of MDA-MB-468 cells. Cells were grown in RPMI 1640 (Welgene)+10% FBS (Gibco)+1% penicillin/streptomycin (Gibco) and cultured at 37° C. in a humidified chamber in the presence of 5% CO2.
MDA-MB-468 cells cultured in 96-well cell culture plates were treated with representative compounds of the present invention and cultured for 72 hours.

MDA-MB-468 cells [2] = experiment: Anti-proliferative effect on MDA-MB-468 cells, IC50 (MTT); format: cell-based; conditions: Homo sapiens, MDA-MB-468, 72 h
Description: The compounds of the present invention were tested at different concentrations (from 1000 nM to 1 nM) to assess their ability for inhibiting the proliferation of MDAMB-468 cells. Cells were cultivated in RPMI 1640 (Welgene)+10% FBS (Gibco)+1% penicillin/streptomycin (Gibco) and cultured at 37° C. in a humidified chamber in the presence of 5% C02.
MDA-MB-468 cells cultured in 96-well cell culture plates were treated with the compounds of the present invention and incubated for 72 hours.

HepG2 cells = experiment: HepG2 cell viability assay (CCK-8); format: cell-based, human; conditions: Homo sapiens, HepG2, 72 h
Description: The ability to inhibit the proliferation of HepG2 cells, which are human hepatocellular carcinoma cells, was measured through the in vitro cell viability assay. Cells were cultured at 37° C. in a humidified condition in the presence of 5% CO2 using a culture medium of MEM (Welgene)+10% FBS (Gibco)+1% penicillin/streptomycin (Gibco). […] Cell viability was measured by CCK-8 method using tetrazolium salt, and the ability of the compounds according to the present invention to inhibit cancer cell proliferation was calculated.

[3] = molecular target: recombinant purified human CDK7 kinase (Homo sapiens (Human), UniProt P50613); experiment: CDK7 kinase-inhibitory activity, ADP-Glo kinase assay; format: biochemical; conditions: ATP 90 µM, MBP substrate, 2 hours at 30° C., read-out: CDK7 inhibition(IC50 nM)
Description: Representative compounds of the present invention were assayed in vitro for CDK7 kinase-inhibitory activities using ADP-Glo platform. In detail, CDK7 kinase-inhibitory activity was measured using recombinant purified human CDK7 kinase (ThermoFisher, PV3868) and ADP Glo kinase assays kit (Promega, V9102). CDK7 kinase was diluted with 1× kinase reaction buffer (40 mM Tris-C1, pH 7.5, 20 mM MgCl2, 0.1 mg/ml BSA and 50 [M DTT) and added to 96 well plates (final concentration of CDK7 per reaction: 50 ng). The compound was finally treated to be a 1% DMSO aqueous solution, and a substrate cocktail containing ATP (final concentration of 90 [M) and 0.2 μg/μl of MBP (Myelin basic protein) in a total of 25 μl of reaction mass was added to 96 well plates, thereby initiating an enzymatic reaction. After 2 hours of incubation (30° C.), equivalent volume (25 μl per reaction) of ADP Glo was added and incubated (30° C.) at room temperature for 60 minutes. The kinase detection reagent (50 μl per reaction) was then added and incubated (30° C.) at room temperature for 30 minutes. The kinase activity was measured by chemiluminescence method according to ADP Glo Kanease Assay Kit instruction manual, and the CDK7-inhibitory activity of the compounds according to the present invention was calculated. The result analysis of each compound was performed using Microsoft Excel, and IC50 values were calculated by Prism software.

Sequence of recombinant purified human CDK7 kinase (P50613 whole entry): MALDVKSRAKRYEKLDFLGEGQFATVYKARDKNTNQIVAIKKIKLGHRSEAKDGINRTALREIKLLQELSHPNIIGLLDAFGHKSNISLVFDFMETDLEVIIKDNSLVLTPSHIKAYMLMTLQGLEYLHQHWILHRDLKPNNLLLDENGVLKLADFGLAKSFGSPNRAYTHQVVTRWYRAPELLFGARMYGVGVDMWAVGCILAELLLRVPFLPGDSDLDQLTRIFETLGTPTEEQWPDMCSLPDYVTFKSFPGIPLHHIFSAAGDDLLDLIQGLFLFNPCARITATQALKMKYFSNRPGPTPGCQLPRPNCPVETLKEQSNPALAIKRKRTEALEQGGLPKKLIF
Sequence of recombinant purified human CDK7 kinase (P51946 whole entry partner): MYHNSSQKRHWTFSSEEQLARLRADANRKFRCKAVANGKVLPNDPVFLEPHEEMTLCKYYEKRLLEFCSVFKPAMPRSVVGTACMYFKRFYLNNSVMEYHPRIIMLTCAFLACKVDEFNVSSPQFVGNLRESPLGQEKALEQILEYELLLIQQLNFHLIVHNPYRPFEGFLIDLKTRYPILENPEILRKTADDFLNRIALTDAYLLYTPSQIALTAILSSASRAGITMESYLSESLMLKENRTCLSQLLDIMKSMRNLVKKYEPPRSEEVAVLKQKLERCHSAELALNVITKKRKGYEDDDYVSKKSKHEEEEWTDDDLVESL
Sequence of recombinant purified human CDK7 kinase (P51948 whole entry partner): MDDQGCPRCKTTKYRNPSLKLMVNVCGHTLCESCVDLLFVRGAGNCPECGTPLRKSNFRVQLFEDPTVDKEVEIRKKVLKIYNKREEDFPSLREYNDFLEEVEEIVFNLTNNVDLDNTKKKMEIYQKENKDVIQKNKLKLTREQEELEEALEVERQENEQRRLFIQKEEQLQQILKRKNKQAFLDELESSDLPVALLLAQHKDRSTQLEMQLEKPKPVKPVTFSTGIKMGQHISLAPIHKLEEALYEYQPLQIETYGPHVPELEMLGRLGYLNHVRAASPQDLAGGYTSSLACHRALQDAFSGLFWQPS

SMILES	inhibition at 0.1 µM (MDA-MB-468 cells [1]) [%]	IC50 (MDA-MB-468 cells [2]) [nM]	IC50 (HepG2 cells) [nM]	IC50 [3] [nM]
C=CC(=O)Nc1ccc(-c2cccc(C(C)C(=O)Nc3ncc(C)s3)c2)cn1 (stereo not drawn) [Example 1, N-(5-(3-(1-((5-methylthiazol-2-yl)amino)-1-oxopropan-2-yl)phenyl)pyridin-2-yl)acrylamide]	54			
C=CC(=O)Nc1ccc(-c2cccc(C(C)C(=O)Nc3ncc(C4CC4)s3)c2)cn1 (stereo not drawn) [Example 2, N-(5-(3-(1-((5-cyclopropylthiazol-2-yl)amino)-1-oxopropan-2-yl)phenyl)pyridin-2-yl)acrylamide]	50	104	15	
C=CC(=O)Nc1ccc(-c2cccc(C(C)C(=O)Nc3ncc(CC)s3)c2)cn1 (stereo not drawn) [Example 4, N-(5-(3-(1-((5-ethylthiazol-2-yl)amino)-1-oxopropan-2-yl)phenyl)pyridin-2-yl)acrylamide]	56			
CC(C(=O)Nc1ncc(C2CC2)s1)c1cccc(-c2ccc(NC(=O)/C=C/CN(C)C)nc2)c1 (stereo not drawn) [Example 6, (E)-N-(5-(3-(1-((5-cyclopropylthiazol-2-yl)amino)-1-oxopropan-2-yl)phenyl)pyridin-2-yl)-4-(dimethylamino)but-2-enamide]	66	86	22	
C=CC(=O)Nc1ccc(-c2ccc(F)c(C(C)C(=O)Nc3ncc(C#N)s3)c2)nn1 (stereo not drawn) [Example 11, N-(6-(3-(1-((5-cyanothiazol-2-yl)amino)-1-oxopropane-2-yl)-4-fluorophenyl)pyridazin-3-yl)acrylamide]	53			
C=CC(=O)Nc1ccc(-c2cccc([C@H](C)C(=O)Nc3ncc(C4CC4)s3)c2)cn1 [Example 14]	74	63	5	
C[C@H](C(=O)Nc1ncc(C2CC2)s1)c1cccc(-c2ccc(NC(=O)/C=C/CN(C)C)nc2)c1 [Example 15]	73	46		
C=CC(=O)Nc1cncc(-c2cccc([C@H](C)C(=O)Nc3ncc(C4CC4)s3)c2)n1 [Example 16]	53			
CCc1cnc(NC(=O)[C@@H](C)c2cccc(-c3ccc(NC(=O)/C=C/CN(C)C)nc3)c2)s1 [Example 17, (S,E)-4-(dimethylamino)-N-(5-(3-(1-((5-ethylthiazol-2-yl)amino)-1-oxopropan-2-yl)phenyl)pyridin-2-yl)but-2-enamide]	70	26		
C=CC(=O)Nc1cnc(-c2cccc([C@H](C)C(=O)Nc3ncc(C4CC4)s3)c2)cn1 [Example 22]	72			
C=CC(=O)Nc1cnc(-c2cccc([C@H](C)C(=O)Nc3ncc(C#N)s3)c2)cn1 [Example 25, (S)-N-(5-(3-(1-((5-cyanothiazol-2-yl)amino)-1-oxopropan-2-yl)phenyl)pyrazin-2-yl)acrylamide]	71			
C=CC(=O)Nc1ncc(-c2cccc([C@H](C)C(=O)Nc3ncc(C4CC4)s3)c2)cn1 [Example 27]	74			
C=CC(=O)Nc1ccc(-c2cccc([C@H](C)C(=O)Nc3ncc(C4CC4)s3)c2)nn1 [Example 28]	74			
C=CC(=O)Nc1ncc(-c2cccc([C@H](C)C(=O)Nc3ncc(C4CC4)s3)c2)cc1F [Example 29]	75			
C=CC(=O)Nc1ncc(-c2cccc([C@H](C)C(=O)Nc3ncc(C#N)s3)c2)cc1F [Example 33, (S)-N-(5-(3-(1-((5-cyanothiazol-2-yl)amino)-1-oxopropan-2-yl)phenyl)-3-fluoropyridin-2-yl)acrylamide]	59			
C=CC(=O)Nc1cnc(-c2cccc([C@H](C)C(=O)Nc3ncc(C(C)C)s3)c2)cn1 [Example 36, (S)-N-(5-(3-(1-((5-isopropylthiazol-2-yl)amino)-1-oxopropan-2-yl)phenyl)pyrazin-2-yl)acrylamide]	64			

SMILES	inhibition at 0.1 µM (MDA-MB-468 cells [1]) [%]	IC50 (MDA-MB-468 cells [2]) [nM]	IC50 (HepG2 cells) [nM]	IC50 [3] [nM]
C=CC(=O)Nc1ccc(-c2cccc([C@H](C)C(=O)Nc3ncc(C(F)(F)F)s3)c2)cn1 [Example 38, (S)-N-(5-(3-(1-oxo-1-((5-(trifluoromethyl)thiazol-2-yl)amino)propan-2-yl)phenyl)pyridin-2-yl)acrylamide]	64			
C=CC(=O)Nc1ccc(-c2cccc([C@H](C)C(=O)Nc3ncc(C(F)(F)F)s3)c2)nn1 [Example 39, (S)-N-(6-(3-(1-oxo-1-((5-(trifluoromethyl)thiazol-2-yl)amino)propan-2-yl)phenyl)pyridazin-3-yl)acrylamide]	67			
C=CC(=O)Nc1ccc(-c2cccc([C@H](C)C(=O)Nc3ncc(C(C)C)s3)c2)nn1 [Example 40, (S)-N-(6-(3-(1-((5-isopropylthiazol-2-yl)amino)-1-oxopropan-2-yl)phenyl)pyridazin-3-yl)acrylamide]	64			
C=CC(=O)Nc1cnc(-c2cncc(C(C)C(=O)Nc3ncc(C(C)C)s3)c2)cn1 (stereo not drawn) [Example 47, N-(5-(5-(1-((5-isopropylthiazol-2-yl)amino)-1-oxopropan-2-yl)pyridin-3-yl)pyrazin-2-yl) acrylamide]	72			
C=CC(=O)Nc1ccc(-c2cncc(C(C)C(=O)Nc3ncc(C(F)(F)F)s3)c2)nn1 (stereo not drawn) [Example 49, N-(6-(5-(1-oxo-1-((5-(trifluoromethyl)thiazol-2-yl)amino)propan-2-yl)pyridin-3-yl)pyridazin-3-yl)acrylamide]	67			
C=CC(=O)Nc1ccc(-c2cc(C(C)C(=O)Nc3ncc(C4CC4)s3)ccn2)cn1 (stereo not drawn) [Example 50, N-(4-(1-((5-cyclopropylthiazol-2-yl)amino)-1-oxopropan-2-yl)-[2,3′-bipyridine]-6′-yl)acrylamide]	66			
C=CC(=O)Nc1ccc(-c2csc(C(C)C(=O)Nc3ncc(C(F)(F)F)s3)c2)cn1 (stereo not drawn) [Example 53, N-(5-(5-(1-oxo-1-((5-(trifluoromethyl)thiazol-2-yl)amino)propan-2-yl)thiophen-3-yl)pyridin-2-yl)acrylamide]	51			
C=CC(=O)Nc1cnc(-c2cncc(C(C)C(=O)Nc3ncc(Cl)s3)c2)cn1 (stereo not drawn) [Example 61, N-(5-(5-(1-((5-chlorothiazol-2-yl)amino)-1-oxopropan-2-yl)pyridin-3-yl)pyrazine-2-yl)acrylamide]	73			
C[C@H](C(=O)Nc1ncc(N(C)C)s1)c1cccc(-c2cnc(NC(=O)/C=C/CN(C)C)cn2)c1 [Example 106, (S,E)-4-(dimethylamino)-N-(5-(3-(1-((5-(dimethylamino)thiazol-2-yl)amino)-1-oxopropan-2-yl)phenyl)pyrazin-2-yl)but-2-enamide]				71
CCc1cnc(NC(=O)[C@@H](C)c2cccc(-c3cnc4c(c3)CCN4C(=O)/C=C/CN(C)C)c2)s1 [Example 122, (S,E)-2-(3-(1-(4-(dimethylamino)but-2-enoyl)-2,3-dihydro-1H-pyrrolo[2,3-b]pyridin-5-yl)phenyl)-N-(5-ethylthiazol-2-yl)propanamide]		34	38	
CCc1cnc(NC(=O)[C@@H](C)c2cccc(-c3cnc(NC(=O)/C=C/CN4CC5CC4CO5)c(C#N)c3)c2)s1 (stereo partly drawn) [Example 123, (E)-4-(2-oxa-5-azabicyclo[2.2.1]heptan-5-yl)-N-(3-cyano-5-(3-((S)-1-((5-ethylthiazol-2-yl)amino)-1-oxopropan-2-yl)phenyl)pyridin-2-yl)but-2-enamide]		24	11	
CCc1cnc(NC(=O)[C@@H](C)c2cccc(-c3cnc(N(C)C(=O)/C=C/CN(C)C)c(C#N)c3)c2)s1 [Example 132, (S,E)-N-(3-cyano-5-(3-(1-((5-ethylthiazol-2-yl)amino)-1-oxopropan-2-yl)phenyl)pyridin-2-yl)-4-(dimethylamino)-N-methylbut-2-enamide]		32	9.5	
CCc1cnc(NC(=O)[C@@H](C)c2cccc(-c3cnc(NC(=O)/C=C/CN4CCOCC4)c(C#N)c3)c2)s1 [Example 135, (S,E)-N-(3-cyano-5-(3-(1-((5-ethylthiazol-2-yl)amino)-1-oxopropan-2-yl)phenyl)pyridin-2-yl)-4-morpholinobut-2-enamide]		48	10	
CCc1cnc(NC(=O)C(C)c2cncc(-c3cnc(NC(=O)/C=C/CN(C)C)c(C#N)c3)c2)s1 (stereo not drawn) [Example 137, (E)-N-(5-cyano-5′-(1-((5-ethylthiazol-2-yl)amino)-1-oxopropan-2-yl)-[3,3′-bipyridin]-6-yl)-4-(dimethylamino)but-2-enamide]		47	18	
CCc1cnc(NC(=O)C(CC)c2cccc(-c3cnc(NC(=O)/C=C/CN(C)C)c(C#N)c3)c2)s1 (stereo not drawn) [Example 138, (E)-N-(3-cyano-5-(3-(1-((5-ethylthiazol-2-yl)amino)-1-oxobutan-2-yl)phenyl)pyridin-2-yl)-4-(dimethylamino)but-2-enamide]		100	52	
